Experimental data from patent US9034866B2 (Genentech, Inc., priority 2012, dated 2015).
Read-outs that look alike come from different tables or passages of the source.

How the values were obtained:
[1] = test system: REL-A (p65) nuclear translocation in HeLa cells; assay: REL-A nuclear translocation assay (classical NF-kB signaling), high content imaging; format: cell-based; conditions: compounds 4.5 hours, then 10 ng/mL TNF-α for 30 minutes, read-out: REL-A HeLa Transloc Assay (IC50)
Method in brief: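 HeLa cells in 10% FBS medium preincubated with compounds (0.2% DMSO final) for 4.5 hours, then stimulated with 10 ng/mL TNF-α for 30 minutes. Fixed cells stained with 400 ng/mL anti-REL-A antibody, Alexa488 secondary and DRAQ5; translocation quantified by imaging as nuclear to cytoplasmic signal ratio.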

[2] = target: nuclear factor-kappa B (NF-kB)-inducing kinase (NIK) (Homo sapiens (Human), UniProt Q99558); assay: NIK Enzyme Inhibition Assay (Transcreener ADP fluorescence polarization); format: biochemical; conditions: read-out: NIK ADP-FP (Ki uM)
Sequence of nuclear factor-kappa B (NF-kB)-inducing kinase (NIK) (Q99558 whole entry): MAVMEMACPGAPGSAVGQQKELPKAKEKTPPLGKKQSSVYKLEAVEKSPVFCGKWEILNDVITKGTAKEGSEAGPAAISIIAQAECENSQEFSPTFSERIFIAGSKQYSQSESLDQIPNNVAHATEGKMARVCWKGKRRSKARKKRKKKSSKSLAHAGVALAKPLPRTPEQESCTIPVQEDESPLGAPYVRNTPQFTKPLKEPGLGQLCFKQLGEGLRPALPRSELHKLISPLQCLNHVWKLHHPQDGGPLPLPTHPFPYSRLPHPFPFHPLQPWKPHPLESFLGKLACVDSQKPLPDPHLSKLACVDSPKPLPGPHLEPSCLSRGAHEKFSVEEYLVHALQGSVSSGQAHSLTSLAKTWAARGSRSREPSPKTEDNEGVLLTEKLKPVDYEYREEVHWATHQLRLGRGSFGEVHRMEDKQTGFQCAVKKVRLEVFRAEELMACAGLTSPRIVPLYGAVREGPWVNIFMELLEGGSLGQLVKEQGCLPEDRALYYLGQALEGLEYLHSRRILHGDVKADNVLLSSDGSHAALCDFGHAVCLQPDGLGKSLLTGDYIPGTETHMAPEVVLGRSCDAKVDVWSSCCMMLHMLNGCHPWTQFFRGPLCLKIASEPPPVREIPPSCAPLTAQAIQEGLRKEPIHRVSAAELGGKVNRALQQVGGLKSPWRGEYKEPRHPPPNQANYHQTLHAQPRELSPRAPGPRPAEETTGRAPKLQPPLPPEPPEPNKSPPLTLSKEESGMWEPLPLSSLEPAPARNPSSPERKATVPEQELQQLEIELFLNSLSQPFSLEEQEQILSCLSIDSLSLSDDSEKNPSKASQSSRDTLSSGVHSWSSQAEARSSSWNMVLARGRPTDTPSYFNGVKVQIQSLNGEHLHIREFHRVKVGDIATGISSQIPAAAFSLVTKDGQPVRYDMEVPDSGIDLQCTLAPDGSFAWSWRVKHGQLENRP
Method in brief: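 Baculovirus/insect-cell-expressed NIK (0.2-1 nM) incubated with compounds 1-3.5 h at 10 uM ATP. Buffer: 50 mM HEPES pH 7.2, 10 mM MgCl2, 2 mM DTT, 1% DMSO. ADP detected by Transcreener fluorescence polarization (ADP antibody, AlexaFluor 633 tracer) after EDTA quench.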

[3] = test system: p52 (NF-kB2) nuclear translocation in HeLa cells; assay: p52 nuclear translocation assay (non-classical NF-kB signaling), high content imaging; format: cell-based; conditions: 100 ng/mL anti-lymphotoxin beta receptor antibody for 5 hours, read-out: p52 HeLa Transloc Assay (IC50)
Method in brief: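 HeLa cells in 10% FBS medium were treated with compound (0.2% DMSO final), then stimulated 5 h with 100 ng/mL anti-lymphotoxin beta receptor antibody. After fixation, cells were immunostained for p52 (2 ug/mL antibody) with DRAQ5 nuclear stain and imaged by high-content imaging. IC50 in µM was derived from the nuclear/cytoplasmic signal ratio.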

[4] = purified NIK 0.2-1 nM, 10 uM ATP, Morrison's quadratic equation

Row | Compound | IC50 ([1]; Homo sapiens, HeLa) | Ki [2, 4] | Ki [2] | IC50 ([3]; Homo sapiens, HeLa, 5 h) | IC50 [1] | IC50 [3]
1 | Cc1cc([C@](C)(O)C#Cc2ccc3c(c2)-c2nc(C(N)=O)c(C(F)(F)F)n2C2CC3C2)no1 | 15.1 µM | – | 0.0005 µM | 0.511 µM | – | –
2 | CN1CC[C@@](O)(C#Cc2ccc3c(c2)-c2nc(C(N)=O)cn2C2CC3C2)C1=O | 20 µM | – | 0.0012 µM | 1.5 µM | – | –
3 | CC(C)(O)C#Cc1ccc2c(c1)-c1nc(C(N)=O)c(-c3nc(C4CC4)n[nH]3)n1CCO2 (racemic) | > 20 µM | 0.0024 µM | – | 0.594 µM | – | –
4 | NC(=O)c1cn2c(n1)-c1cc(C#CC3(O)CCNC3=O)c(F)cc1OCC2 (racemic) | > 20 µM | 0.0032 µM | – | 16 µM | – | –
5 | CC(C)(O)C#Cc1cc2c(cc1F)C1CC(C1)n1c-2nc(C(N)=O)c1C1CN(C(=O)OC(C)(C)C)C1 (racemic) | > 20 µM | 0.0077 µM | – | 1.8 µM | – | –
6 | Cc1cc([C@](C)(O)C#Cc2ccc3c(c2)-c2nc(C(N)=O)c(C(F)(F)F)n2CCO3)no1 (racemic) | > 20 µM | 0.0049 µM | – | 4.5 µM | – | –
7 | Cc1nc([C@](C)(O)C#Cc2cc3c(cc2F)C2CC(C2)n2c-3nc(C(N)=O)c2C(F)(F)F)no1 (racemic) | > 20 µM | 0.0072 µM | – | 2.3 µM | – | –
8 | Cc1cc([C@](C)(O)C#Cc2ccc3c(c2)-c2nc(C(N)=O)c(CC4(C)COC4)n2C2CC3C2)no1 (racemic) | > 20 µM | 0.0012 µM | – | 0.74 µM | – | –
9 | Cc1cc([C@](C)(O)C#Cc2cc3c(cc2F)OCCn2c-3nc(C(N)=O)c2-c2cnn(CC(C)(C)O)c2)no1 (racemic) | > 20 µM | 0.00127 µM | – | 1.8 µM | – | –
10 | Cc1cc([C@](C)(O)C#Cc2cc3c(cc2F)C2CC(C2)n2c-3nc(C(N)=O)c2-c2cnn(CC(C)(C)O)c2)no1 (racemic) | > 20 µM | 0.00071 µM | – | 1.9 µM | – | –
11 | CNC(=O)c1c(C(N)=O)nc2n1C1CC(C1)c1cc(F)c(C#CC(C)(C)O)cc1-2 (racemic) | > 20 µM | 0.0022 µM | – | 0.358 µM | – | –
12 | CC(C)(O)C#Cc1ccc2c(c1)-c1nc(C(N)=O)c(C(F)(F)F)n1C1CC2C1 (racemic) [Example 206] | > 20 µM | 0.026 µM | – | 4.4 µM | – | –
13 | CNC(=O)c1c(C(N)=O)nn2c1CCOc1ccc(C#C[C@]3(O)CCN(C)C3=O)cc1-2 (racemic) [Example 514] | > 20 µM | 0.0012 µM | – | 0.543 µM | – | –
14 | Cc1cc([C@](C)(O)C#Cc2ccc3c(c2)-c2nc(C(N)=O)cn2CCO3)no1 [Example 8, 9-[(R)-3-Hydroxy-3-(5-methyl-isoxazol-3-yl)-but-1-ynyl]-4,5-dihydro-6-oxa-1,3a-diaza-benzo[e]azulene-2-carboxylic acid amide] | 20 µM | 0.001 µM | – | 0.672 µM | – | –
15 | CNC(=O)c1c(C(N)=O)nc2n1CCOc1cc(F)c(C#C[C@@](C)(O)c3cc(C)on3)cc1-2 [Example 99, 8-fluoro-9-[(R)-3-hydroxy-3-(5-methyl-isoxazol-3-yl)-but-1-ynyl]-4,5-dihydro-6-oxa-1,3a-diaza-benzo[e]azulene-2,3-di-carboxylic acid 2-amide 3-methylamide] | 20 µM | – | 0.001 µM | 0.0625 µM | – | –
16 | CC(C)(O)C#Cc1cc2c(cc1F)OCCn1c-2nc(C(N)=O)c1-c1nc(-c2cccnc2)n[nH]1 [Example 172] | > 20 µM | 0.0004 µM | – | 1.2 µM | – | –
17 | CNC(=O)c1c(C(N)=O)nc2n1CCOc1cc(F)c(C#CC(C)(O)c3ccccn3)cc1-2 (stereo not drawn) [Example 180, 9-fluoro-10-[3-hydroxy-3-(2-pyridyl)but-1-ynyl]-N3-methyl-5,6-dihydroimi-dazo[1,2-d][1,4]benzoxazepine-2,3-dicarboxamide] | > 20 µM | 0.0012 µM | – | 0.87 µM | – | –
18 | Cc1c(C(N)=O)nc2n1C1CC(C1)c1cc(F)c(C#C[C@@](C)(O)c3ncccn3)cc1-2 [Example 321, 9-fluoro-10-[(3R)-3-hydroxy-3-pyrim-idin-2-yl-but-1-ynyl]-3-methyl-5,6,7,12-tet-rahydro-5,7-methanobenzo[c]imidazo[1,2-a]azepine-2-carboxamide] | > 20 µM | 0.012 µM | – | 3 µM | – | –
19 | CC(C)(O)c1c(C(N)=O)nc2n1C1CC(C1)c1cc(F)c(C#CC3(O)CCCC3)cc1-2 [Example 324, 9-fluoro-10-[2-(1-hydroxycyclopentyl)ethy-nyl]-3-(1-hydroxy-1-methyl-ethyl)-5,6,7,12-tetrahydro-5,7-methanobenzo[c]imi-dazo[1,2-a]azepine-2-carboxamide] | – | – | 0.0089 µM | – | > 20 µM | 1.1 µM
20 | CN1CC[C@@](O)(C#Cc2cc3c(cc2F)C2CC(C2)n2c-3nc(C(N)=O)c2C(C)(C)O)C1=O [Example 327, 9-fluoro-3-(1-hydroxy-1-methyl-ethyl)-10-[2-[(3R)-3-hydroxy-1-methyl-2-oxo-pyrrolidin-3-yl]ethynyl]-5,6,7,12-tet-rahydro-5,7-methanobenzo[c]imidazo[1,2-a]azepine-2-carboxamide] | > 20 µM | 0.00685 µM | – | 7.8 µM | – | –

Continued, in another order:

Row | IC50 ([1]; Homo sapiens, HeLa) | Ki [2, 4] | Compound | Ki [2] | IC50 ([3]; Homo sapiens, HeLa, 5 h) | IC50 [1] | IC50 [3]
21 | > 20 µM | 0.00072 µM | CN1CC[C@@](O)(C#Cc2ccc3c(c2)-c2nc(C(N)=O)c(C(F)(F)F)n2CCO3)C1=O | – | 0.442 µM | – | –
22 | > 20 µM | 0.0012 µM | CC(C)NC(=O)c1c(C(N)=O)nc2n1CCOc1ccc(C#C[C@]3(O)CCN(C)C3=O)cc1-2 | – | 0.316 µM | – | –
23 | 20 µM | 0.0004 µM | CC(C)(O)C#Cc1cc2c(cc1F)OCCn1c-2nc(C(N)=O)c1C(=O)NCC#N | – | 0.077 µM | – | –
24 | 20 µM | 0.003 µM | CC(O)(C#Cc1cc2c(cc1F)OCCc1sc(C(N)=O)nc1-2)CO (stereo not drawn) | – | 1.1 µM | – | –
25 | > 20 µM | 0.0015 µM | Cn1nccc1C(O)c1c(C(N)=O)nc2n1CCOc1cc(F)c(C#CC(C)(C)O)cc1-2 (racemic) | – | 2.4 µM | – | –
26 | > 20 µM | 0.0009 µM | NC(=O)c1cn2c(n1)-c1cc(C#CC3(O)CCc4cccnc43)c(F)cc1OCC2 (racemic) | – | 1.5 µM | – | –
27 | 1.8 µM | 0.00061 µM | CNC(=O)c1c(C(N)=O)nc2n1C1CC(C1)c1ccc(C#C[C@@](C)(O)c3cc(C)on3)cc1-2 (racemic) | – | 1.3 µM | – | –
28 | 20 µM | 0.0011 µM | Cc1cc([C@](C)(O)C#Cc2ccc3c(c2)-c2nc(C(N)=O)c(C(=O)NC4CCOCC4)n2C2CC3C2)no1 (racemic) | – | 0.284 µM | – | –
29 | 20 µM | 0.008 µM | CC(O)(C#Cc1cc2c(cc1F)OCCn1cc(C(N)=O)nc1-2)CF (racemic) [Example 75] | – | 3.8 µM | – | –
30 | 20 µM | 0.0003 µM | Cc1cc([C@](C)(O)C#Cc2cc3c(cc2F)OCCn2cc(C(N)=O)nc2-3)no1 [Example 6, 8-fluoro-9-[(R)-3-hydroxy-3-(5-methyl-isoxazol-3-yl)-but-1-ynyl]-4,5-dihydro-6-oxa-1,3a-diaza-benzo[e]azulene-2-car-boxylic acid amide] | – | 0.135 µM | – | –
31 | 20 µM | 0.0002 µM | Cc1cc([C@](C)(O)C#Cc2ccc3c(c2)-c2nc(C(N)=O)sc2CCO3)no1 [Example 7, 9-[(R)-3-hydroxy-3-(5-methyl-isoxazol-3-yl)-but-1-ynyl]-4,5-dihydro-6-oxa-3-thia-1-aza-benzo[e]azulene-2-carboxylic acid amide] | – | 0.0395 µM | – | –
32 | 20 µM | 0.002 µM | CNC(=O)c1c(C(N)=O)nc2n1CCOc1ccc(C#C[C@@](C)(O)c3noc(C)n3)cc1-2 [Example 98, 9-[(R)-3-hydroxy-3-(5-methyl-[1,2,4]ox-adiazol-3-yl)-but-1-ynyl]-4,5-dihydro-6-oxa-1,3a-diaza-benzo[e]azulene-2,3-di-carboxylic acid 2-amide 3-methylamide] | – | 0.237 µM | – | –
33 | 20 µM | 0.002 µM | Cc1cc([C@](C)(O)C#Cc2ccc3c(c2)-c2nc(C(N)=O)c(CN4CCOCC4)n2CCO3)no1 [Example 103, 9-[(R)-3-hydroxy-3-(5-methyl-isoxazol-3-yl)-but-1-ynyl]-3-morpholin-4-ylmeth-yl-4,5-dihydro-6-oxa-1,3a-diaza-ben-zo[e]azulene-2-carboxylic acid amide] | – | 0.104 µM | – | –
34 | 20 µM | 0.00016 µM | Cn1c(C(N)=O)nc2c1C1CC(C1)c1cc(F)c(C#C[C@@](C)(O)c3ncccn3)cc1-2 [Example 283, (R)-8-fluoro-9-(3-hydroxy-3-(pyrimidin-2-yl)but-1-yn-1-yl)-3-methyl-3,4,5,6-tetrahydro-4,6-methanobenzo[3,4]cyclo-hepta[1,2-d]imidazole-2-carboxamide] | – | 0.881 µM | – | –
35 | 5.6 µM | 0.0057 µM | Cc1cc([C@](C)(O)C#Cc2cc3c(cc2F)C2CC(C2)n2c-3nc(C(N)=O)c2C(C)(C)O)no1 [Example 326] | – | 1.2 µM | – | –
